The target in assay [1] is Glycogen phosphorylase, muscle form (Oryctolagus cuniculus) (UniProt P00489). Nature of the assay: Inhibition of rabbit muscle glycogen phosphorylase A assessed as release of inorganic phosphate from glucose-1- phosphate in presence of glycogen at 222 uM after 30 mins by malachite green based assay relative to control.
Assay [2] shares this target. Nature of the assay: Inhibition of rabbit muscle glycogen phosphorylase A assessed as release of inorganic phosphate from glucose-1- phosphate in presence of glycogen after 30 mins by malachite green based assay.
The target is the same in assay [3]. Nature of the assay: Inhibition of rabbit muscle glycogen phosphorylase A assessed as release of inorganic phosphate from glucose-1- phosphate in presence of glycogen at 2.2 uM after 30 mins by malachite green based assay relative to control.
Assay [4] deals with T1, Glycogen phosphorylase, muscle form (Rattus norvegicus) (UniProt P09812).
T1 sequence (whole entry): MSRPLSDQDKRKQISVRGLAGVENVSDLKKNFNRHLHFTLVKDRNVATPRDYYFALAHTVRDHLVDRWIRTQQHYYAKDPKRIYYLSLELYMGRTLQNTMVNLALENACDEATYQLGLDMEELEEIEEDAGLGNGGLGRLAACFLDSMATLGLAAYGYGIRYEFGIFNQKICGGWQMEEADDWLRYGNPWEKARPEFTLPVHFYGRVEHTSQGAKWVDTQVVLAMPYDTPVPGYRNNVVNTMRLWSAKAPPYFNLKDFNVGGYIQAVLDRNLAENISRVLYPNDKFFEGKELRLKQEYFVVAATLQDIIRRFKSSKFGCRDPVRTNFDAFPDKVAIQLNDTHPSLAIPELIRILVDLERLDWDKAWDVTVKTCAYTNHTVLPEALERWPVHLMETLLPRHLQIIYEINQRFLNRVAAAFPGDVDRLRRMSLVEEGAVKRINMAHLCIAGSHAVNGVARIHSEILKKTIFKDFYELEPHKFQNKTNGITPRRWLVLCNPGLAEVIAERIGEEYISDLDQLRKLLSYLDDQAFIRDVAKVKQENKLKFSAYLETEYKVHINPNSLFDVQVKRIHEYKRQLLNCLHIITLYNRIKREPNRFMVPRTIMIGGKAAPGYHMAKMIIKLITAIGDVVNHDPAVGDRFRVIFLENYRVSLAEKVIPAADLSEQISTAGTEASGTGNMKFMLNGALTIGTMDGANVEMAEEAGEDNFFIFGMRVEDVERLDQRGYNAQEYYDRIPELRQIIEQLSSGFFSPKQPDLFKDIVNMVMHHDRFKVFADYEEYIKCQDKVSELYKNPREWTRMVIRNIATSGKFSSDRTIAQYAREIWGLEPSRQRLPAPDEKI
To be noted: 22.2 uM.
Description: Inhibition of rat muscle glycogen phosphorylase A assessed as release of inorganic phosphate from glucose-1- phosphate in presence of glycogen at 22.2 uM after 30 mins by malachite green based assay relative to control

These results are taken from ChEMBL document CHEMBL3997784, “Discovery of new nanomolar inhibitors of GPa: Extension of 2-oxo-1,2-dihydropyridinyl-3-yl amide-based GPa inhibitors” (Eur J Med Chem, 2017).

The structures appear in SMILES notation. pIC50: −log10 of the molar value. Activity calls are given as the source filed them. No cut-off for these calls is given here.

Sequence of Glycogen phosphorylase, muscle form (Oryctolagus cuniculus) (P00489 whole entry, looked up): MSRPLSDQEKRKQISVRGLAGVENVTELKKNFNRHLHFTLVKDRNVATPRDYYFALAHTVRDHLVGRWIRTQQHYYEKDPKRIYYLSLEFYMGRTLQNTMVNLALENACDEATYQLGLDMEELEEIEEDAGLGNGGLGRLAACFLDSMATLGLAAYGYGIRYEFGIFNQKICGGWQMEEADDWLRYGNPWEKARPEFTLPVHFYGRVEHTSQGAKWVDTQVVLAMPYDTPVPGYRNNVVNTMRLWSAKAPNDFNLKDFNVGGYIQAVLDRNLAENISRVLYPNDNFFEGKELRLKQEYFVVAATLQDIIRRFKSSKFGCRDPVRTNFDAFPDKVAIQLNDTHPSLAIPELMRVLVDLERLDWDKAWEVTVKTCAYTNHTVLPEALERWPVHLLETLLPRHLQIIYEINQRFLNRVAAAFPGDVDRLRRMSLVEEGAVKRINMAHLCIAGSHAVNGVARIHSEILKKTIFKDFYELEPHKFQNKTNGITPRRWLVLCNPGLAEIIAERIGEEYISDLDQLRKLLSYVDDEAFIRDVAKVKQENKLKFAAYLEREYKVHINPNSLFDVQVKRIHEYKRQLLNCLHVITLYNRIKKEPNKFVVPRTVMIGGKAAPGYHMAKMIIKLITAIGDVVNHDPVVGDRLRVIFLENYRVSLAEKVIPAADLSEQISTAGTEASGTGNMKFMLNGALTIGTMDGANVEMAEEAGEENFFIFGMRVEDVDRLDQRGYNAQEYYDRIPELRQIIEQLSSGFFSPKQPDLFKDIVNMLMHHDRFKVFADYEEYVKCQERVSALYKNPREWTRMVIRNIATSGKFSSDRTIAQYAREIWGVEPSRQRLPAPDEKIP

What is called inhibition is the share of the control response that was lost under treatment. `O=C(NCc1ccccc1)C1CCCN(C(=O)c2ccccc2)C1=O` (centres undefined): in assay [1], the inhibition result is “inactive”.
One may read the pIC50 as the negative decadic logarithm of the IC50, by convention in mol/L. For `O=c1c(NCc2ccc(Cl)c(Cl)c2)cccn1Cc1ccccc1`, the pIC50 in assay [2] is 4.48. Also, in assay [1], the inhibition is over 85%.
`O=c1c(NCc2ccccc2)cccn1Cc1ccccc1`: the inhibition result in assay [1] is “inactive”.
On the same count and under the same terms, to `CCOC(=O)Cn1cccc(NCc2ccc(CNc3cccn(CC(=O)OCC)c3=O)s2)c1=O` belongs 29%.
As to `O=C(NCc1ccccc1)C1CCCN(C(=O)c2ccccc2Cl)C1=O` (centres undefined), the inhibition in assay [1] came to 38%.
For `Cc1ccn(CC(=O)NCc2ccc(Cl)c(Cl)c2)c(=O)c1NCc1ccccc1`, the inhibition in assay [1] came out at 38%.
Take `O=C(NCc1ccc(Cl)c(Cl)c1)C1CCCN(C(=O)c2ccccc2)C1=O` (centres undefined): the inhibition in assay [1] was 39%.
Regarding `Cn1cccc(NCc2ccc(Cl)c(Cl)c2)c1=O`, in assay [1], the inhibition was determined as 34%.
`O=C(Cn1cccc(NCc2ccc(CNc3cccn(CC(=O)NCc4ccc(Cl)c(Cl)c4)c3=O)s2)c1=O)NCc1ccc(Cl)c(Cl)c1`: the pIC50 in assay [2] was 6.59. Further, in assay [3], the inhibition was over 85%.
Take `CCOC(=O)Cn1cccc(NC(=O)Nc2ccc(NC(=O)Nc3cccn(CC(=O)OCC)c3=O)cc2)c1=O`: the pIC50 in assay [2] was 5.51. Also, in assay [1], the inhibition was over 85%.
With `O=C(Cn1cccc(NC(=O)Nc2ccc(NC(=O)Nc3cccn(CC(=O)NCc4ccc(Cl)c(Cl)c4)c3=O)cc2)c1=O)NCc1ccc(Cl)c(Cl)c1`, the pIC50 in assay [2] is 6.64. The inhibition in assay [3] was over 85%.
In the case of `CCCNC(=O)Cn1cccc(NC(=O)Nc2ccc(NC(=O)Nc3cccn(CC(=O)NCCC)c3=O)cc2)c1=O`, the inhibition in assay [4] was over 85%. The pIC50 in assay [2] was 5.80.
Regarding `O=C(Cn1cccc(NC(=O)c2ccccc2)c1=O)NCCNC(=O)Cn1cccc(NC(=O)c2ccccc2)c1=O`, the inhibition entry in assay [1] is “inactive”.
Consider `O=C(Cn1cccc(NCc2ccccc2)c1=O)NCc1cn(Cc2ccccc2)nn1`, for which the inhibition in assay [1] came out at 60%.
